According to ChEMBL document CHEMBL3217683, “Matched triplicate design sets in the optimisation of glucokinase activators maximising medicinal chemistry information content” (Medchemcomm, 2013):
pEC50, pIC50: −log10 of the molar value.

Tests used:
Hexokinase-4 = target: T1, Hexokinase-4 (Homo sapiens, UniProt P35557); experiment: Activity at glucokinase (unknown origin)
T1 sequence (P35557 whole entry): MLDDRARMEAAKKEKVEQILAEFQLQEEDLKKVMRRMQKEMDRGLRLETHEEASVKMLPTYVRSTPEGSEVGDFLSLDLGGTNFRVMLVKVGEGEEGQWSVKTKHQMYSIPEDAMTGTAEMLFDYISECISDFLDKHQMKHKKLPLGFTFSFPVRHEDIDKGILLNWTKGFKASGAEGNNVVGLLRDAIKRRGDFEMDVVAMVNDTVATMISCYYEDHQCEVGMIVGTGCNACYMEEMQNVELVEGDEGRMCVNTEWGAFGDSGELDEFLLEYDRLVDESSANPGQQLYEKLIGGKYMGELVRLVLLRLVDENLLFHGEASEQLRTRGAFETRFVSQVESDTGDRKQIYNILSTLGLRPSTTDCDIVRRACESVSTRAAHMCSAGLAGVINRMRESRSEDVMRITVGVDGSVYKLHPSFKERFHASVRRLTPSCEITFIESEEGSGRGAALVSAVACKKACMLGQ

[1] = Lipophilicity, log D of the compound; type: physicochemical; conditions: octanol/water
[2] = target: Voltage-gated inwardly rectifying potassium channel KCNH2 (Homo sapiens, UniProt Q12809); experiment: Inhibition of human ERG
Chain of Voltage-gated inwardly rectifying potassium channel KCNH2 (Q12809 whole entry): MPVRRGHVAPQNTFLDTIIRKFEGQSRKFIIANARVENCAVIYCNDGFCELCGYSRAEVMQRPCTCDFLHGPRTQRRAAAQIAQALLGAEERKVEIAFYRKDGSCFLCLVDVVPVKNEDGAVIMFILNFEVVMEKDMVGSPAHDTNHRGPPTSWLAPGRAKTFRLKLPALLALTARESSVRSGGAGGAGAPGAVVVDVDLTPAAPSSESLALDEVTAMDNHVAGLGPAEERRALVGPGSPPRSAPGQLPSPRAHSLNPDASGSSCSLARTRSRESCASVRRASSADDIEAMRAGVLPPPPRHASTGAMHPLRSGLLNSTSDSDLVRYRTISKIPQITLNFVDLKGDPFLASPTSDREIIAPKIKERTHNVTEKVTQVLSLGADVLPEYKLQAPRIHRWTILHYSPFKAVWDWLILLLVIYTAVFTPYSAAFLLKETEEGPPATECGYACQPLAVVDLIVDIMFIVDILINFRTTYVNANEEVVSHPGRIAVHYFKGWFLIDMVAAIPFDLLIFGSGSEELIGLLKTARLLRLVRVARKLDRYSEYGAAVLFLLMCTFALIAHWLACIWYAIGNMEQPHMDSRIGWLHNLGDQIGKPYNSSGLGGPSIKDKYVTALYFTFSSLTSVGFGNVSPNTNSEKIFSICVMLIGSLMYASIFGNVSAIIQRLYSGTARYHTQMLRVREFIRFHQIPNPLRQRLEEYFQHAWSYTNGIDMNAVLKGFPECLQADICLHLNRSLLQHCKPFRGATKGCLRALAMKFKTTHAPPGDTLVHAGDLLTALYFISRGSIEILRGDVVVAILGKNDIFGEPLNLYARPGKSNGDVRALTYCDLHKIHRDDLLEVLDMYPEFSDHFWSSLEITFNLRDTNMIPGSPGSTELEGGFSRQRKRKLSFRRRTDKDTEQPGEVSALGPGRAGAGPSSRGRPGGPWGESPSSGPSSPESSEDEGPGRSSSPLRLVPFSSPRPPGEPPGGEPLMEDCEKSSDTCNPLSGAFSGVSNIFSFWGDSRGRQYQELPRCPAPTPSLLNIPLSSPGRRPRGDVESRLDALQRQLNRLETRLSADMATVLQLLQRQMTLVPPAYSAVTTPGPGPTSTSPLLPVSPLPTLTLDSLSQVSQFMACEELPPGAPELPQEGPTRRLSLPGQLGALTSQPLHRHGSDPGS

[3] = Clearance in rat; type: ADME, organism-based; conditions: in vivo
Rattus norvegicus = organism: Rattus norvegicus; experiment: Unbound clearance in rat; type: ADME, organism-based; conditions: in vivo

Row | pEC50 (Hexokinase-4) | logD [1] | clearance [3] | CL free (Rattus norvegicus) | Compound | pIC50 [2]
1 | 6.40 | 3.5 | – | – | CC(C)OC[C@H](Oc1ncnc2c1cnn2-c1ncccc1Cl)C(=O)Nc1ccc(Cl)cn1 | 4.20
2 | – | 3.6 | 37 mL/min/kg | 500 mL/min/kg | COCC[C@H](Oc1ncnc2c1cnn2-c1ccccc1Cl)C(=O)Nc1ccc(C)cn1 | 4.70
3 | 6.90 | 3.5 | – | – | CC(C)OC[C@H](Oc1ncnc2c1cnn2-c1ccccc1Cl)C(=O)Nc1ccccn1 | 4.20
4 | 6.80 | 2.3 | 54 mL/min/kg | 280 mL/min/kg | COCC[C@H](Oc1ncnc2c1cnn2-c1ncccc1Cl)C(=O)Nc1ccc(C)cn1 | –
5 | – | 2.8 | 44 mL/min/kg | 150 mL/min/kg | CCOC[C@H](Oc1ncnc2c1cnn2-c1ccccc1Cl)C(=O)Nc1cnc(C)cn1 | –
6 | 5.90 | 1.8 | 50 mL/min/kg | 320 mL/min/kg | CCOC[C@H](Oc1ncnc2c1cnn2-c1ncccc1Cl)C(=O)Nc1cnc(C)cn1 | 4.80
7 | 6.90 | 3.9 | 71 mL/min/kg | 1400 mL/min/kg | Cc1ccc(NC(=O)[C@H](COC(C)C)Oc2ncnc3c2cnn3-c2ccccc2Cl)nc1 | 4.50
8 | – | 2.7 | – | – | CC(C)OC[C@H](Oc1ncnc2c1cnn2-c1ncccc1Cl)C(=O)Nc1ccc(F)cn1 | 4.10
9 | 7.10 | 3.6 | 42 mL/min/kg | 650 mL/min/kg | Cc1cnc(NC(=O)[C@H](COC2CCC2)Oc2ncnc3c2cnn3-c2ccccc2Cl)cn1 | 4.90
10 | 6.20 | 2.5 | – | – | CC(C)OC[C@H](Oc1ncnc2c1cnn2-c1ncccc1Cl)C(=O)Nc1ccc(C#N)cn1 | 4.30
11 | – | 2.4 | – | – | CCOC[C@H](Oc1ncnc2c1cnn2-c1ncccc1Cl)C(=O)Nc1ccc(F)cn1 | –
12 | 6.20 | 2 | – | – | CCOC[C@H](Oc1ncnc2c1cnn2-c1ncccc1Cl)C(=O)Nc1ccc(C#N)cn1 | 4.70
13 | 6.70 | 3.9 | – | – | CC(C)OC[C@H](Oc1ncnc2c1cnn2-c1ccccc1Cl)C(=O)Nc1ccc(F)cn1 | –
14 | 6.90 | – | – | – | CC(C)OC[C@H](Oc1ncnc2c1cnn2-c1ccccc1Cl)C(=O)Nc1ccc(Cl)cn1 | –
15 | 6.80 | 2.6 | 22 mL/min/kg | 260 mL/min/kg | Cc1cnc(NC(=O)[C@H](COC2CCC2)Oc2ncnc3c2cnn3-c2ncccc2Cl)cn1 | –
16 | 5.30 | 1.4 | 4 mL/min/kg | – | COC[C@H](Oc1ncnc2c1cnn2-c1ncccc1Cl)C(=O)Nc1cnc(C)cn1 | < 4.10
17 | 6.50 | 3 | – | – | CCOC[C@H](Oc1ncnc2c1cnn2-c1ncccc1Cl)C(=O)Nc1ccc(Cl)cn1 | 5.00
18 | 6.50 | 3.5 | – | – | CC(C)OC[C@H](Oc1ncnc2c1cnn2-c1ccccc1Cl)C(=O)Nc1ccc(C#N)cn1 | –
19 | 6.80 | 3.2 | 136 mL/min/kg | 1500 mL/min/kg | Cc1ccc(NC(=O)[C@H](COC2CCC2)Oc2ncnc3c2cnn3-c2ncccc2Cl)nc1 | 4.40
20 | 6.30 | 2.5 | – | – | CC(C)OC[C@H](Oc1ncnc2c1cnn2-c1ncccc1Cl)C(=O)Nc1ccccn1 | < 4.00
21 | 6.50 | 3.4 | 3.8 mL/min/kg | – | COC[C@H](Oc1ncnc2c1cnn2-c1ccccc1Cl)C(=O)Nc1ccc(C)cn1 | 4.30
22 | 6.60 | 2.6 | 52 mL/min/kg | 340 mL/min/kg | CCOC[C@H](Oc1ncnc2c1cnn2-c1ncccc1Cl)C(=O)Nc1ccc(C)cn1 | –
23 | – | 2.9 | 62 mL/min/kg | 390 mL/min/kg | Cc1ccc(NC(=O)[C@H](COC(C)C)Oc2ncnc3c2cnn3-c2ncccc2Cl)nc1 | < 4.00
24 | 5.80 | 2.3 | 9.3 mL/min/kg | – | COC[C@H](Oc1ncnc2c1cnn2-c1ncccc1Cl)C(=O)Nc1ccc(C)cn1 | < 4.00
25 | 6.30 | 2.1 | – | – | CCOC[C@H](Oc1ncnc2c1cnn2-c1ncccc1Cl)C(=O)Nc1ccccn1 | < 4.00
26 | 6.50 | 2.1 | 61 mL/min/kg | 130 mL/min/kg | Cc1cnc(NC(=O)[C@H](COC(C)C)Oc2ncnc3c2cnn3-c2ccccc2Cl)cn1 | < 4.00
